This is an account of results in patent publication US8859596B2, “Compounds as cannabinoid receptor ligands” (priority 2008, dated 2014).

Like-named read-outs stand apart in the source and are kept apart here.

In one experiment the target is human CB2 receptors (Homo sapiens (Human), UniProt P34972). Description: human CB2 radioligand binding assay ([3H]CP 55,940 competition). The procedure:
(§1) The CB1 and CB2 radioligand binding assays described herein are utilized to ascertain the affinity of compounds of the present application for binding to CB2 relative to CB1 receptors.
HEK293 cells stably expressing human CB2 receptors were grown until a confluent monolayer was formed. Briefly, the cells were harvested and homogenized in TE buffer (50 mM Tris-HCl, 1 mM MgCl2, and 1 mM EDTA) using a polytron for 2×10 second bursts in the presence of protease inhibitors, followed by centrifugation at 45,000×g for 20 minutes. The final membrane pellet was re-homogenized in storage buffer (50 mM Tris-HCl, 1 mM MgCl2, and 1 mM EDTA and 10% sucrose) and frozen at −78° C. until used. Saturation binding reactions were initiated by the addition of membrane preparation (protein concentration of 5 μg/well for human CB2) into wells of a deep well plate containing [^3H]CP 55,940 (120 Ci/mmol, a nonselective CB agonist commercially available from Tocris) in assay buffer (50 mM Tris, 2.5 mM EDTA, 5 mM MgCl2, and 0.5 mg/mL fatty acid free BSA, pH 7.4). After 90 min incubation at 30° C., binding reaction was terminated by the addition of 300 μL/well of cold assay buffer followed by rapid vacuum filtration through a UniFilter-96 GF/C filter plates (pre-soaked in 1 mg/mL BSA for 2 hours). The bound activity was counted in a TopCount using Microscint-20. Saturation experiments were conducted with twelve concentrations of [^3H]CP 55,940 ranging from 0.01 to 8 nM. Competition experiments were conducted with 0.5 nM [^3H]CP 55,940 and five concentrations (0.01 nM to 10 μM) of displacing ligands. The addition of 10 μM unlabeled CP 55,940 (Tocris, Ellisville, Mo.) was used to assess nonspecific binding.

A further experiment addresses rat CB2 (Rattus norvegicus (Rat), UniProt Q9QZN9). Briefly: rat CB2 radioligand binding assay ([3H]CP 55,940 competition). The method, then:
as §1
HEK293 cells stably expressing rat CB2 receptors were grown until a confluent monolayer was formed. Briefly, the cells were harvested and homogenized in TE buffer (50 mM Tris-HCl, 1 mM MgCl2, and 1 mM EDTA) using a polytron for 2×10 second bursts in the presence of protease inhibitors, followed by centrifugation at 45,000×g for 20 minutes. The final membrane pellet was re-homogenized in storage buffer (50 mM Tris-HCl, 1 mM MgCl2, and 1 mM EDTA and 10% sucrose) and frozen at −78° C. until used. Saturation binding reactions were initiated by the addition of membrane preparation (protein concentration of 20 μg/well for rat CB2) into wells of a deep well plate containing [^3H]CP 55,940 (120 Ci/mmol, a nonselective CB agonist commercially available from Tocris) in assay buffer (50 mM Tris, 2.5 mM EDTA, 5 mM MgCl2, and 0.5 mg/mL fatty acid free BSA, pH 7.4). After 45 min incubation at 30° C., binding reaction was terminated by the addition of 300 μl/well of cold assay buffer followed by rapid vacuum filtration through a UniFilter-96 GF/C filter plates (pre-soaked in 1 mg/mL BSA for 2 hours). The bound activity was counted in a TopCount using Microscint-20. Saturation experiments were conducted with twelve concentrations of [^3H]CP 55,940 ranging from 0.01 to 8 nM. Competition experiments were conducted with 0.5 nM [^3H]CP 55,940 and five concentrations of displacing ligands selected from the range of 0.01 nM to […] addition of 10 μM unlabeled CP 55,940 (Tocris, Ellisville, Mo.) was used to assess nonspecific binding.

Where [1] appears, read: HEK293 membranes, 0.5 nM [3H]CP 55,940, read-out: human CB2 (Ki).
The mark [2] stands for this setting: HEK293 membranes, 0.5 nM [3H]CP 55,940, read-out: rat CB2 (Ki).

Chain of human CB2 receptors (P34972 whole entry): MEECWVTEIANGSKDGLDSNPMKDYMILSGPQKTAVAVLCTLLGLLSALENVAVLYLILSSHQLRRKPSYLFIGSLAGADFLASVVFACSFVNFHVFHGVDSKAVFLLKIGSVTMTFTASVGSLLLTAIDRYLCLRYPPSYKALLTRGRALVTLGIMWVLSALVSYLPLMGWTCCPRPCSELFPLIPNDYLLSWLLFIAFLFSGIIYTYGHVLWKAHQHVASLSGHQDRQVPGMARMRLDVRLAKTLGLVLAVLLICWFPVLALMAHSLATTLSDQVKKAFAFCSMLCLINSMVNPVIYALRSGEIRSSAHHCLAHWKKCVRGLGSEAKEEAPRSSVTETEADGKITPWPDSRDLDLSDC
Chain of rat CB2 (Q9QZN9 whole entry): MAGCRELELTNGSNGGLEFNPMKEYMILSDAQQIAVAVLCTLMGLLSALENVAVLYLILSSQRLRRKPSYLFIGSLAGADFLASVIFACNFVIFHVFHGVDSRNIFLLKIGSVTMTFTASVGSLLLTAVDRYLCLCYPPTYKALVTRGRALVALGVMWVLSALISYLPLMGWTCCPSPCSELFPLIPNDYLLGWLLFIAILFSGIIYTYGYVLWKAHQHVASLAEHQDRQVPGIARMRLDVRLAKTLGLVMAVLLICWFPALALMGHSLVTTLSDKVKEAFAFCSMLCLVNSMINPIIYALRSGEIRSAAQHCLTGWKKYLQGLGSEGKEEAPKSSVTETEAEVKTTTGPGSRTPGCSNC

As for `CCCCn1nc(C(C)(C)C)s/c1=N\C(=O)c1ccc(C(F)(F)F)cc1ONC(C)(C)C` [Example 170, 2-[(tert-butylamino)oxy]-N-[(2Z)-3-butyl-5-tert-butyl-1,3,4-thiadiazol-2(3H)-ylidene]-4-(trifluoromethyl)benzamide], the Ki on human CB2 receptors (setting [1]) worked out at 127 nM; at rat CB2 (setting [2]), 6.3 nM.

For `CCCCn1nc(C(C)(C)C)s/c1=N\C(=O)c1cc(C(F)(F)F)ccc1ON(C)C` [Example 171, N-[(2Z)-3-butyl-5-tert-butyl-1,3,4-thiadiazol-2(3H)-ylidene]-2-[(dimethylamino)oxy]-5-(trifluoromethyl)benzamide], the Ki at human CB2 receptors was 21 nM; on rat CB2, 4.9 nM.

Regarding `CC(C)(C)NOc1ccc(C(F)(F)F)cc1C(=O)/N=c1\sc(C(C)(C)C)nn1CCCCF` [Example 174, 2-[(tert-butylamino)oxy]-N-[(2Z)-5-tert-butyl-3-(4-fluorobutyl)-1,3,4-thiadiazol-2(3H)-ylidene]-5-(trifluoromethyl)benzamide], the Ki stood at 6.2 nM at human CB2 receptors (setting [1]) and 1.1 nM at rat CB2 (setting [2]).

In the case of `CCCCn1nc(C(C)(C)C)s/c1=N\C(=O)c1cc(C(F)(F)F)ccc1ON=C(N)C(C)C` [Example 175, 2-({[1-amino-2-methylpropylidene]amino}oxy)-N-[(2Z)-3-butyl-5-tert-butyl-1,3,4-thiadiazol-2(3H)-ylidene]-5-(trifluoromethyl)benzamide], the inhibitory constant (Ki) at human CB2 receptors (setting [1]) came out at 5.3 nM; at rat CB2 (setting [2]), 2.9 nM.

Turning to `CCCCn1nc(C(C)(C)C)s/c1=N\C(=O)c1cc(C(F)(F)F)ccc1ON=C(N)C(=O)OCC` [Example 176, ethyl amino {[2-({[(2Z)-3-butyl-5-tert-butyl-1,3,4-thiadiazol-2(3H)-ylidene]amino}carbonyl)-4-(trifluoromethyl)phenoxy]imino}acetate], the results for the Ki at human CB2 receptors (setting [1]) and on rat CB2 (setting [2]) were 6.1 nM and 1.7 nM, respectively.

For the molecule `CC(C)(C)NOc1ccc(C(F)(F)F)cc1C(=O)/N=c1\sc(C(C)(C)C)nn1CC1CCO1` (centres unmarked) [Example 177, 2-[(tert-butylamino)oxy]-N-[(2Z)-5-tert-butyl-3-(oxetan-2-ylmethyl)-1,3,4-thiadiazol-2(3H)-ylidene]-5-(trifluoromethyl)benzamide], the Ki turned out to be 15 nM on human CB2 receptors (setting [1]) and 7.3 nM at rat CB2 (setting [2]).

For `C/C(=N\Oc1ccc(C(F)(F)F)cc1C(=O)/N=c1\cc(C(C)(C)C)n(C)n1C[C@H]1CCCO1)C(F)(F)F` [Example 178, N-{(3E)-5-tert-butyl-1-methyl-2-[(2R)-tetrahydrofuran-2-ylmethyl]-1,2-dihydro-3H-pyrazol-3-ylidene}-5-(trifluoromethyl)-2-({[(1E)-2,2,2-trifluoro-1-methylethylidene]amino}oxy)benzamide], the Ki is over 1000 nM at human CB2 receptors (setting [1]) and 40 nM on rat CB2 (setting [2]).

For `C/C(=N\Oc1ccc(C(F)(F)F)cc1C(=O)/N=c1\cc(C(C)(C)C)n(C)n1CC1CC1)C(F)(F)F` [Example 179, N-[(3E)-5-tert-butyl-2-(cyclopropylmethyl)-1-methyl-1,2-dihydro-3H-pyrazol-3-ylidene]-5-trifluoromethyl-2-({[(1E)-2,2,2-trifluoro-1-methylethylidene]amino}oxy)benzamide], the inhibition constant Ki at human CB2 receptors (setting [1]) is over 1000 nM; at rat CB2 (setting [2]), 288 nM.

Consider `CCCCn1nc(C(C)(C)C)s/c1=N\C(=O)c1cc(C(F)(F)F)ccc1O/N=C(\C)C(C)=O` [Example 180, N-[(2Z)-3-butyl-5-tert-butyl-1,3,4-thiadiazol-2(3H)-ylidene]-2-({[(1E)-1-methyl-2-oxopropylidene]amino}oxy)-5-(trifluoromethyl)benzamide], for which the results for the Ki on human CB2 receptors (setting [1]) and at rat CB2 (setting [2]) were 18 nM and 11 nM, respectively.

Turning to `CCCCn1nc(C(C)(C)C)s/c1=N\C(=O)c1cc(C(F)(F)F)ccc1NNC(=O)OC(C)(C)C` [Example 181, tert-butyl 2-[2-({[(2Z)-3-butyl-5-tert-butyl-1,3,4-thiadiazol-2(3H)-ylidene]amino}carbonyl)-4-(trifluoromethyl)phenyl]hydrazinecarboxylate], the figures for the Ki on human CB2 receptors and on rat CB2 were 1 nM and 1.7 nM, respectively.

For the molecule `CCCCn1nc(C(C)(C)C)s/c1=N\C(=O)c1cc(C(F)(F)F)ccc1ON=C(N)c1ccc(F)cc1` [Example 182, 2-({[amino(4-fluorophenyl)methylene]amino}oxy)-N-[(2Z)-3-butyl-5-tert-butyl-1,3,4-thiadiazol-2(3H)-ylidene]-5-(trifluoromethyl)benzamide], the Ki was found to be 21 nM on human CB2 receptors (setting [1]) and 7 nM at rat CB2 (setting [2]).

`CCCCn1nc(C(C)(C)C)s/c1=N\C(=O)c1cc(C(F)(F)F)ccc1NNc1ccccn1` [Example 183, N-[(2Z)-3-butyl-5-tert-butyl-1,3,4-thiadiazol-2(3H)-ylidene]-2-(2-pyridin-2-ylhydrazino)-5-(trifluoromethyl)benzamide]: the Ki at human CB2 receptors (setting [1]) is 32 nM; on rat CB2 (setting [2]), 5.6 nM.

Take `CCCCn1nc(C(C)(C)C)s/c1=N\C(=O)c1cc(C(F)(F)F)ccc1N(C)N(C)C(=O)OC(C)(C)C` [Example 184]: the results for the Ki on human CB2 receptors (setting [1]) and on rat CB2 (setting [2]) were 279 nM and 35 nM, respectively.

In the case of `CCCCn1nc(C(C)(C)C)s/c1=N\C(=O)c1cc(C(F)(F)F)ccc1ON=C(C)N` [Example 185, 2-({[1-aminoethylidene]amino}oxy)-N-[(2Z)-3-butyl-5-tert-butyl-1,3,4-thiadiazol-2(3H)-ylidene]-5-(trifluoromethyl)benzamide], the Ki at human CB2 receptors (setting [1]) is 16 nM; on rat CB2 (setting [2]), 3.6 nM.

For the molecule `CCCCn1nc(C(C)(C)C)s/c1=N\C(=O)c1cc(C(F)(F)F)ccc1ON=C(N)CC` [Example 186, 2-({[1-aminopropylidene]amino}oxy)-N-[(2Z)-3-butyl-5-tert-butyl-1,3,4-thiadiazol-2(3H)-ylidene]-5-(trifluoromethyl)benzamide], the Ki on human CB2 receptors (setting [1]) turned out to be 5.1 nM; at rat CB2 (setting [2]), 2.7 nM.

Turning to `CCCCn1nc(C(C)(C)C)s/c1=N\C(=O)c1cc(C(F)(F)F)ccc1NN=C(C)C` [Example 187, N-[(2Z)-3-butyl-5-tert-butyl-1,3,4-thiadiazol-2(3H)-ylidene]-2-[2-(1-methylethylidene)hydrazino]-5-(trifluoromethyl)benzamide], the Ki turned out to be 247 nM on human CB2 receptors (setting [1]) and 120 nM at rat CB2 (setting [2]).

As to `CCCCn1nc(C(C)(C)C)s/c1=N\C(=O)c1cc(C(F)(F)F)ccc1ON=C(N)C1CC1` [Example 188, 2-({[amino(cyclopropyl)methylene]amino}oxy)-N-[(2Z)-3-butyl-5-tert-butyl-1,3,4-thiadiazol-2(3H)-ylidene]-5-(trifluoromethyl)benzamide], the Ki came out at 2.5 nM on human CB2 receptors (setting [1]) and 0.9 nM on rat CB2 (setting [2]).

Take `CCCCn1nc(C(C)(C)C)s/c1=N\C(=O)c1cc(C(F)(F)F)ccc1ON=C1CCCCCN1` [Example 189, 2-{[azepan-2-ylideneamino]oxy}-N-[(2Z)-3-butyl-5-tert-butyl-1,3,4-thiadiazol-2(3H)-ylidene]-5-(trifluoromethyl)benzamide]: the values for the inhibition constant Ki on human CB2 receptors (setting [1]) and on rat CB2 (setting [2]) were 1.6 nM and 4.9 nM, respectively.

Turning to `CCCCn1nc(C(C)(C)C)s/c1=N\C(=O)c1cc(C(F)(F)F)ccc1ON=C1CCCC1` [Example 190, N-[(2Z)-3-butyl-5-tert-butyl-1,3,4-thiadiazol-2(3H)-ylidene]-2-[(cyclopentylideneamino)oxy]-5-(trifluoromethyl)benzamide], the values for the Ki at human CB2 receptors (setting [1]) and at rat CB2 (setting [2]) were 1.7 nM and 3.2 nM, respectively.

Usually Ki stands for the equilibrium dissociation constant of an inhibitor or competing ligand from its target.
